The source of these data is patent EP3572411A1, “THIAZOLE DERIVATIVES AS METALLO-BETA-LACTAMASE INHIBITORS” (Antabio SAS, priority 2018, dated 2019).

Read-outs that look alike come from different tables or passages of the source. A value given as a limit tells only on which side of the number the result lay.

Holding throughout (test): In vitro enzyme inhibition assay (imipenem hydrolysis, UV 299 nm)
Common to all, as to format: biochemical

In one assay the target is T1, IMP-1 (Serratia marcescens, UniProt P52699).
T1 construct: VIM-1; VIM-2
T1 sequence (P52699 19-246, looked up, species assumed): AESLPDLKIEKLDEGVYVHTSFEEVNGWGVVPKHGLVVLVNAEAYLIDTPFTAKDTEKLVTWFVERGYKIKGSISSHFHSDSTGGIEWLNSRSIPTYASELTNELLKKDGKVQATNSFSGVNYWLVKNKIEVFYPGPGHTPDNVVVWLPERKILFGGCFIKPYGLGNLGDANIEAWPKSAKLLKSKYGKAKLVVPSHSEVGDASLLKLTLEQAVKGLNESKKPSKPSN
As to the method: (§1) In vitro enzyme inhibition assays: Enzyme inhibition assays are performed using purified MBL enzymes (NDM-1; VIM-1; VIM-2; IMP-1) in 10mM HEPES buffer pH 7.5 in 96-well microtiter plates. Imipenem (300µM) is used as substrates and its hydrolysis is followed at UV 299 nm during 10mn every 30 seconds using a Perkin Elmer Envision UV fluorescence plate reader. Hydrolysis rate data in presence of a range of inhibitors are analysed using Dotmatics database software and calculated IC50 values are converted to Ki values using the Cheng-Prusoff equation. Ki = IC50 / (1+([S]/Km) and where the Km values for […] are 70 µM, 1.5 µM, 9 µM and 25 µM respectively. Compound dilution is performed in DMSO. Mean Ki values from multiple experiments are presented. Results are shown in Table 1.

The next assay addresses T2, VIM-1 (Pseudomonas aeruginosa, UniProt A0A0F7KYQ8).
T2 construct: VIM-1; VIM-2; IMP-1)
How it is done: as §1

In the next assay the target is T3, NDM-1 (Klebsiella pneumoniae, UniProt C7C422).
T3 construct: VIM-1; VIM-2
T3 sequence (C7C422 29-270, looked up): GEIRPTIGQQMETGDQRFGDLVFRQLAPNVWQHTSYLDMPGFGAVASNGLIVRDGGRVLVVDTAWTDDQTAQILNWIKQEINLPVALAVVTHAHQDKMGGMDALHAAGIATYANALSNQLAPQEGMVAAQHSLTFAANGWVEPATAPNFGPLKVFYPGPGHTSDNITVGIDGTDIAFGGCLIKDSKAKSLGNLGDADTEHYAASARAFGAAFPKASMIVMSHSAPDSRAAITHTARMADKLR
How it is done: as §1

Another assay deals with T4, VIM-2 (Escherichia coli, UniProt Q5U7L7).
T4 construct: VIM-1; VIM-2
The conditions noted are these: read-out: Ki (µM) VIM-2; purified enzyme, 10mM HEPES pH 7.5, Imipenem 300µM; mean Ki from IC50 by Cheng-Prusoff. As to the method:
as §1

The mark [1] stands for this setting: read-out: Ki (µM) IMP-1; purified enzyme, 10mM HEPES pH 7.5, Imipenem 300µM; mean Ki from IC50 by Cheng-Prusoff.
Setting [2] is: read-out: Ki (µM) VIM-1; purified enzyme, 10mM HEPES pH 7.5, Imipenem 300µM; mean Ki from IC50 by Cheng-Prusoff.
The mark [3] stands for this setting: read-out: Ki (µM) NDM-1; purified enzyme, 10mM HEPES pH 7.5, Imipenem 300µM; mean Ki from IC50 by Cheng-Prusoff.

As a reminder, the Ki is the dissociation constant of the complex between target and ligand, obtained from inhibition or displacement. Take `C[n+]1ccn(CC(=O)Nc2ccc(S(=O)(=O)Nc3scnc3C(=O)[O-])cc2F)c1` [Example 1, 1-[({4-[(4-carboxy-1,3-thiazol-5-yl)sulfamoyl]-2-fluorophenyl}carbamoyl)methyl]-3-methyl-1H-imidazol-3-ium]: the Ki was 1 to 8 µM on IMP-1 (setting [1]), 0.2 to 0.5 µM on VIM-1 (setting [2]), below 0.05 µM on NDM-1 (setting [3]) and 0.05 to 0.2 µM at VIM-2.

For `Cc1n(CC(=O)Nc2ccc(S(=O)(=O)Nc3scnc3C(=O)[O-])cc2F)cc[n+]1C` [Example 2, 1-[({4-[(4-carboxy-1,3-thiazol-5-yl)sulfamoyl]-2-fluorophenyl}carbamoyl)methyl]-2,3-dimethyl-1H-imidazol-3-ium], the Ki lay within 1 to 8 µM at IMP-1 (setting [1]), 0.2 to 0.5 µM on VIM-1 (setting [2]), 0.05 to 0.2 µM at NDM-1 (setting [3]) and 0.05 to 0.2 µM at VIM-2.

Regarding `C[n+]1ccn(CC(=O)Nc2ccc(S(=O)(=O)Nc3scnc3C(=O)[O-])cc2F)c1N` [Example 3, 2-amino-1-[({4-[(4-carboxy-1,3-thiazol-5-yl)sulfamoyl]-2-fluorophenyl}carbamoyl)methyl]-3-methyl-1H-imidazol-3-ium], the Ki is 1 to 8 µM on IMP-1 (setting [1]), 0.2 to 0.5 µM at VIM-1 (setting [2]), 0.05 to 0.2 µM at NDM-1 (setting [3]) and 0.05 to 0.2 µM on VIM-2.

Consider `CSc1n(CC(=O)Nc2ccc(S(=O)(=O)Nc3scnc3C(=O)[O-])cc2F)cc[n+]1C` [Example 4], for which the Ki at IMP-1 (purified enzyme, 10mM HEPES pH 7.5, Imipenem 300µM; mean Ki from IC50 by Cheng-Prusoff; read-out: Ki (µM) IMP-1) was in the range of 1 to 8 µM; at VIM-1 (purified enzyme, 10mM HEPES pH 7.5, Imipenem 300µM; mean Ki from IC50 by Cheng-Prusoff; read-out: Ki (µM) VIM-1) it was 0.2 to 0.5 µM; on NDM-1 (purified enzyme, 10mM HEPES pH 7.5, Imipenem 300µM; mean Ki from IC50 by Cheng-Prusoff; read-out: Ki (µM) NDM-1), 0.05 to 0.2 µM.

Take `O=C(Cn1cc[n+]2c1COCC2)Nc1ccc(S(=O)(=O)Nc2scnc2C(=O)[O-])cc1F` [Example 5, 1-[({4-[(4-carboxy-1,3-thiazol-5-yl)sulfamoyl]-2-fluorophenyl}carbamoyl)methyl]-1H,5H,6H,8H-4lambda5-imidazo[2,1-c][1,4]oxazin-4-ylium]: the Ki on IMP-1 (setting [1]) was 1 to 8 µM; on VIM-1 (setting [2]) it was 0.5 to 0.8 µM; at NDM-1 (setting [3]), 0.05 to 0.2 µM; at VIM-2, 0.05 to 0.2 µM.

On to `Cc1c[n+](C)cn1CC(=O)Nc1ccc(S(=O)(=O)Nc2scnc2C(=O)[O-])cc1F` [Example 6, 1-[({4-[(4-carboxy-1,3-thiazol-5-yl)sulfamoyl]-2-fluorophenyl}carbamoyl)methyl]-3,5-dimethyl-1H-imidazol-3-ium], for which the Ki at IMP-1 (setting [1]) lay within 1 to 8 µM; on VIM-1 (setting [2]) it was 0.5 to 0.8 µM; on NDM-1 (setting [3]), 0.2 to 0.4 µM; at VIM-2, 0.05 to 0.2 µM.

Regarding `Cc1cn(CC(=O)Nc2ccc(S(=O)(=O)Nc3scnc3C(=O)[O-])cc2F)c[n+]1C` [Example 7, 1-[({4-[(4-carboxy-1,3-thiazol-5-yl)sulfamoyl]-2-fluorophenyl}carbamoyl)methyl]-3,4-dimethyl-1H-imidazol-3-ium], the Ki on IMP-1 (setting [1]) was 1 to 8 µM; on VIM-1 (setting [2]) it was below 0.2 µM; on NDM-1 (setting [3]), 0.2 to 0.4 µM; at VIM-2 it was 0.02 to 0.05 µM.

As to `C[n+]1c(N)ccn1CC(=O)Nc1ccc(S(=O)(=O)Nc2scnc2C(=O)[O-])cc1F` [Example 8, 3-amino-1-[({4-[(4-carboxy-1,3-thiazol-5-yl)sulfamoyl]-2-fluorophenyl}carbamoyl)methyl]-2-methyl-1H-pyrazol-2-ium], the Ki lay within 1 to 8 µM on IMP-1 (setting [1]), 0.2 to 0.5 µM on VIM-1 (setting [2]) and 0.05 to 0.2 µM on NDM-1 (setting [3]).

With `C[n+]1ccn(CC(=O)Nc2ccc(S(=O)(=O)Nc3scnc3C(=O)[O-])cc2F)n1` [Example 9, 1-[({4-[(4-carboxy-1,3-thiazol-5-yl)sulfamoyl]-2-fluorophenyl}carbamoyl)methyl]-3-methyl-1H-1,2,3-triazol-3-ium], the Ki is 1 to 8 µM on IMP-1 (setting [1]), 0.2 to 0.5 µM at VIM-1 (setting [2]), below 0.05 µM at NDM-1 (setting [3]) and 0.05 to 0.2 µM on VIM-2.

In the case of `C[n+]1cccn1CC(=O)Nc1ccc(S(=O)(=O)Nc2scnc2C(=O)[O-])cc1F` [Example 10, 1-[({4-[(4-carboxy-1,3-thiazol-5-yl)sulfamoyl]-2-fluorophenyl}carbamoyl)methyl]-2-methyl-1H-pyrazol-2-ium], the Ki lay within 1 to 8 µM on IMP-1 (setting [1]), 0.2 to 0.5 µM at VIM-1 (setting [2]) and 0.05 to 0.2 µM on NDM-1 (setting [3]).

As to `NCC[n+]1ccn(CC(=O)Nc2ccc(S(=O)(=O)Nc3scnc3C(=O)[O-])cc2F)c1` [Example 11, 3-(2-aminoethyl)-1-[({4-[(4-carboxy-1,3-thiazol-5-yl)sulfamoyl]-2-fluorophenyl}carbamoyl)methyl]-1H-imidazol-3-ium], the Ki on IMP-1 (setting [1]) was 1 to 8 µM; at VIM-1 (setting [2]) it was below 0.2 µM; at NDM-1 (setting [3]), below 0.05 µM; at VIM-2, 0.02 to 0.05 µM.

As to `N=C(N)NCC[n+]1ccn(CC(=O)Nc2ccc(S(=O)(=O)Nc3scnc3C(=O)[O-])cc2F)c1` [Example 12, 3-(2-carbamimidamidoethyl)-1-[({4-[(4-carboxy-1,3-thiazol-5-yl)sulfamoyl]-2-fluorophenyl}carbamoyl)methyl]-1H-imidazol-3-ium], the Ki was 1 to 8 µM at IMP-1 (setting [1]), below 0.2 µM on VIM-1 (setting [2]), below 0.05 µM on NDM-1 (setting [3]) and 0.05 to 0.2 µM at VIM-2.

In the case of `C[n+]1ccn(CC(=O)Nc2c(F)cc(S(=O)(=O)Nc3scnc3C(=O)[O-])cc2F)c1` [Example 13, 1-[({4-[(4-carboxy-1,3-thiazol-5-yl)sulfamoyl]-2,6-difluorophenyl}carbamoyl)methyl]-3-methyl-1H-imidazol-3-ium], the Ki lay in the range of 1 to 8 µM on IMP-1 (setting [1]), 0.5 to 0.8 µM at VIM-1 (setting [2]), 0.05 to 0.2 µM at NDM-1 (setting [3]) and 0.05 to 0.2 µM at VIM-2.

For `NCC[n+]1ccn(CC(=O)Nc2c(F)cc(S(=O)(=O)Nc3scnc3C(=O)[O-])cc2F)c1` [Example 14, 3-(2-aminoethyl)-1-[({4-[(4-carboxy-1,3-thiazol-5-yl)sulfamoyl]-2,6-difluorophenyl}carbamoyl)methyl]-1H-imidazol-3-ium], the Ki was 1 to 8 µM on IMP-1 (setting [1]), below 0.2 µM on VIM-1 (setting [2]), below 0.05 µM on NDM-1 (setting [3]) and 0.02 to 0.05 µM at VIM-2.

With `N=C(N)NCC[n+]1ccn(CC(=O)Nc2c(F)cc(S(=O)(=O)Nc3scnc3C(=O)[O-])cc2F)c1` [Example 15, 1-(2-carbamimidamidoethyl)-3-[({4-[(4-carboxy-1,3-thiazol-5-yl)sulfamoyl]-2,6-difluorophenyl}carbamoyl)methyl]imidazol-1-ium], the Ki on IMP-1 (setting [1]) is 1 to 8 µM; at VIM-1 (setting [2]), below 0.2 µM; on NDM-1 (setting [3]) it was below 0.05 µM; at VIM-2, 0.02 to 0.05 µM.

As for `NCCC[n+]1ccn(CC(=O)Nc2ccc(S(=O)(=O)Nc3scnc3C(=O)[O-])cc2F)c1` [Example 16, 3-(3-aminopropyl)-1-[({4-[(4-carboxy-1,3-thiazol-5-yl)sulfamoyl]-2-fluorophenyl}carbamoyl)methyl]-1H-imidazol-3-ium], the Ki was 1 to 8 µM on IMP-1 (setting [1]), below 0.2 µM on VIM-1 (setting [2]), below 0.05 µM at NDM-1 (setting [3]) and below 0.02 µM on VIM-2.

Consider `N#Cc1cc(S(=O)(=O)Nc2scnc2C(=O)[O-])ccc1NC(=O)Cn1cc[n+](CCN)c1` [Example 18, 3-(2-aminoethyl)-1-[({4-[(4-carboxy-1,3-thiazol-5-yl)sulfamoyl]-2-cyanophenyl}carbamoyl)methyl]-1H-imidazol-3-ium], for which the Ki at IMP-1 (setting [1]) is 0.5 to 1 µM; on VIM-1 (setting [2]) it was below 0.2 µM; on NDM-1 (setting [3]), 0.05 to 0.2 µM; on VIM-2, below 0.02 µM.

`N#Cc1cc(S(=O)(=O)Nc2scnc2C(=O)[O-])ccc1NC(=O)Cn1cc[n+](CCNC(=N)N)c1` [Example 19, 3-(2-carbamimidamidoethyl)-1-[({4-[(4-carboxy-1,3-thiazol-5-yl)sulfamoyl]-2-cyanophenyl}carbamoyl)methyl]-1H-imidazol-3-ium]: the Ki is 1 to 8 µM on IMP-1 (setting [1]), below 0.2 µM on VIM-1 (setting [2]), 0.2 to 0.4 µM at NDM-1 (setting [3]) and 0.02 to 0.05 µM on VIM-2.

Turning to `CN(C)CC[n+]1ccn(CC(=O)Nc2ccc(S(=O)(=O)Nc3scnc3C(=O)[O-])cc2F)c1` [Example 20, 3-[({4-[(4-carboxy-1,3-thiazol-5-yl)sulfamoyl]-2-fluorophenyl}carbamoyl)methyl]-1-[2-(dimethylamino)ethyl]imidazol-1-ium], the Ki is 1 to 8 µM on IMP-1 (setting [1]), below 0.2 µM on VIM-1 (setting [2]), below 0.05 µM on NDM-1 (setting [3]) and 0.05 to 0.2 µM on VIM-2.

For `C[n+]1cn(CC(=O)Nc2ccc(S(=O)(=O)Nc3scnc3C(=O)[O-])cc2F)cn1` [Example 22, 4-[({4-[(4-carboxy-1,3-thiazol-5-yl)sulfamoyl]-2-fluorophenyl}carbamoyl)methyl]-1-methyl-1,2,4-triazol-1-ium], the Ki on IMP-1 (setting [1]) was in the range of 0.5 to 1 µM; at VIM-1 (setting [2]), 0.2 to 0.5 µM; on NDM-1 (setting [3]), 0.05 to 0.2 µM; at VIM-2, 0.05 to 0.2 µM.
